The values below come from PMC4667193 (Scientific Reports, 2015).

Common to all, as to format: cell-based
The test system of data set [1] is rat primary hippocampal cell culture. The experiment in a line: MTT viability assay, AEME-induced neurotoxicity. As to conditions: 10^−3 M AEME, 24 hours, % of control. The protocol: Neuronal viability was evaluated in the hippocampal cell culture using the 3-(4,5-dimethylthiazol-2-yl)-2,5-diphenyltetrazolium bromide (MTT; Sigma) reduction assay, with some modification. Briefly, after 24 hours of incubation with 10^−3 M AEME in the absence and in the presence of 10 nM pirenzepine hydrochloride (M1 selective antagonist; Sigma), 10 nM p-F-HHSiD (M3 selective antagonist; Sigma) and the specific inhibitor of different isoforms of PLC U73122 (10 nM)[55] (Sigma), all the medium was removed, and 100 μL of MTT solution, containing 5 mg/mL MTT in PBS and neurobasal medium without phenol red (1:9, v/v) were added. After 3 hours of incubation with MTT at 37 °C in a humidified atmosphere of 5% CO2, the MTT solution was removed and 200 μL of dimethyl sulfoxide was added to each well. After 30 minutes of shaking, the absorbance was measured at 570 nm in a multiwell plate reader (BioTek Synergy H1 Hybrid Reader). Potassium chloride (250 mM) was used as a positive control of neuronal death. Muscarinic antagonists, as well as the iPLC, were added 30 minutes prior to incubation with AEME. The antagonist concentration used was near the pKi[25][56]. A control containing 0.002% DMSO was used, since the iPLC stock solution was previously dissolved in this solvent. The assay was performed in quadruplicate, and the results were expressed as a percentage of the control value.

Data set [2] has the same test system. Kind of data set: DNA fragmentation (propidium iodide, flow cytometry). To be noted: for cells with fragmented DNA: 24 hours, control 28.6%. As to the method: DNA fragmentation was assessed using propidium iodide following the method described by Lima et al.[47]. Hippocampal cells were incubated with 10^−4 or 10^−3 M AEME for 12 and 24 hours. Briefly, exposed cells were removed from the culture plate and centrifuged (500 g for 5 minutes) and lysed with a fragmentation buffer ([…] propidium iodide, 0.1% sodium citrate, and 0.1% Triton-X) for 2 hours at room temperature in the dark. DNA fragmentation was analyzed in a flow cytometry (FACSCalibur, Becton Dickinson, CA) using the FL2-A channel (λexcitation = 585 nm and λemission = 642 nm) and […] cells were evaluated per experiment.
(In general: A flow cytometer gives signals particle by particle.)

The next data set concerns the target T1, Rat M5 mAChR (Rattus norvegicus, UniProt P08911).
T1 construct: host or cells: CHO (CHO-K1) cells
T1 sequence (P08911 1-531): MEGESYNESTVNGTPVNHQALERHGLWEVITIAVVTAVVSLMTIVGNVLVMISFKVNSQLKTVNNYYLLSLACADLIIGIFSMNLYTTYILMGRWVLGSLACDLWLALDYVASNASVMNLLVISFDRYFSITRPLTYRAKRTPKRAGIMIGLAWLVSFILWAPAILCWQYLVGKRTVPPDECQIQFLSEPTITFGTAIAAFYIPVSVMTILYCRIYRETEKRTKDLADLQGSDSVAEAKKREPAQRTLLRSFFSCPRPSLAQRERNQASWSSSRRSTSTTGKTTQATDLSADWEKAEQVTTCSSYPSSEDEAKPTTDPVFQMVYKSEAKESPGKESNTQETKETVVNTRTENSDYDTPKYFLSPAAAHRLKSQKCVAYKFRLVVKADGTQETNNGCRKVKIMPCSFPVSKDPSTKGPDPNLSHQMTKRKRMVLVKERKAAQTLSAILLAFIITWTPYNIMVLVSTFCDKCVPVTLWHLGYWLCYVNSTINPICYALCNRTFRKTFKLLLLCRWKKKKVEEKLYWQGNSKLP
The experiment in a line: calcium mobilization assay in CHO cells, incl. Schild analysis. As to the method: CHO cells expressing rM1, rM3 and rM5 were plated at 4 × 10^4 cells per well, whereas rM2 and rM4 were plated at 6 × 10^4 cells per well, in standard growth media (as described previously under “cell culture”) in 96-well plates 24 hours before assay and were incubated overnight at 37 °C in 5% CO2. […] Cells were incubated for 45 minutes (37 °C, 5% CO2) for dye loading. Fluo4-AM dye was removed, cells were washed and replaced with 40 μL of calcium assay buffer. AEME concentration-response curves were determined in single-add experiments. […] All compounds were dissolved in dimethyl sulfoxide (DMSO) and then in calcium assay buffer to obtain a final DMSO concentration of 0.3%. […] These values were fit using GraphPad Prism version 5.0 to determine EC50 values and Schild slope and pA2 in the Schild analyses.
In general terms: Calcium flux is commonly read through the fluorescence of an indicator in the cells.

For data set [3], the system named is rat primary hippocampal cell culture. The experiment in a line: intracellular calcium release in hippocampal cells (Fluo4-AM). To be noted: 10^−5, 10^−4 and 10^−3 M AEME. As to the method:
Hippocampal cells were removed from the plates and previously incubated with Fluo4-AM dye (Invitrogen) dissolved in Neurobasal medium (Gibco®) for one hour[46]. The cells were centrifuged (300 g for 5 minutes at 20 °C), washed with phosphate buffer solution (PBS) without calcium, and plated in microscopy confocal (Zeiss LSM 510, Meta) microplates pretreated with poli-L-lysine. The fluorescence was measured for 90 seconds in the absence and/or in the presence of 10^−5, 10^−4 and 10^−3 M AEME. After this period, 250 mM KCl was added in order to promote neuronal […] and, thus, verify its viability. All measurements were performed with a PBS free-calcium solution. Digitalized images were analyzed through the software Origin 5.

Where [4] appears, read: rat M5, AEME 10^−6 to 10^−3.5 M vs acetylcholine.

In the case of `COC(=O)C1=CC[C@@H]2CC[C@H]1N2C` [AEME, anhydroecgonine methyl ester], in data set [1], the viable cells is 67.2%. Further, the “cells with fragmented DNA” value in data set [2] (10^−3 M) was 44.1%. The DNA fragmentation result in data set [2] (10^−4 or 10^−3 M, 12 hours) is given as “same pattern of DNA fragmentation as the control group”. Besides, the “cells with fragmented DNA” value in data set [2] (lower AEME concentration (10^−4 M)) was 32.1%. At Rat M5 mAChR (rat M5, 100 μM AEME on ACh curve), the mechanism of action entry was “antagonized the effects of ACh”. Further, at Rat M5 mAChR (setting [4]), the Schild slope is 0.95 ± 0.07 and the “pA2 (antagonist affinity, Schild analysis)” value is 4.87 ± 0.10. Also, the calcium increase result at Rat M5 mAChR (rat M5, agonist mode) is listed as “no calcium increase”. Moreover, the intracellular calcium release entry in data set [3] is “concentration-dependent increase”.
